Measured values published in patent publication US7585859B2, “PDE4B inhibitors and uses therefor” (Plexxikon, Inc., priority 2004, dated 2009).

Tests used:
[1] = biological target: T1, PDE4B: The catalytic domain of human PDE4B from S152-S528 (Homo sapiens, UniProt Q07343); experiment: PDE4 IC50 determination by Scintillation Proximity Assay, PDE4B; assay type: biochemical; settings: Table 1B, Formula I compounds; read-out: IC50 PDE4B
T1 construct: His6 (N); thrombin cleavage site (N); made in house; host or cells: E. coli
Method: (§1) IC50s were determined by Scintillation Proximity Assay (SPA). The principle of the assay is based on the fact that cAMP, the PDE4 substrate, binds weakly to Yittrium Silicate SPA beads, whereas AMP, the product of PDE4 hydrolysis binds strongly. Thus, the extent of PDE4 hydrolysis of a sample of [^3H]cAMP can be measured because only the
(§2) [^3H]AMP produced by PDE4 hydrolysis will bind to the SPA beads and produce a scintillation signal.
(§3) PDE4 enzymes used for IC50 assays were:
(§4) Enzyme was stored in 50% glycerol at −20°.
(§5) In addition to the compound dilutions, each assay plate contained control wells with 1 μl of DMSO (to define 0% enzyme inhibition) or 1 μl of 200 μM roflumilast (to define 100% enzyme inhibition). […] Next, 10 μl of PDE4 enzyme in assay buffer was added and the plates were shaken for 30 s. at 1000 rpm to start the cAMP hydrolysis reaction. The concentrations of enzyme used were: PDE4B, 80 ng/ml; PDE4D, 4 ng/ml; PDE4B2, 2.5 μl of 50% glycerol stock/ml; PDE4D5 0.083 μl of 50% glycerol stock/ml. Assay plates were covered and incubated for 30 min. at 30°. […] The assay plates were covered with clear plastic film, centrifuged for 1 min. at 1000 RPM to settle the SPA beads, and counted using a Wallac TriLux scintillation counter. IC50's were calculated from the raw assay data by non-linear regression curve fitting using the Assay Explorer software package from MDL.

PDE4D = biological target: T2, PDE4D (Homo sapiens, UniProt Q08499); experiment: PDE4 IC50 determination by Scintillation Proximity Assay, PDE4D; assay type: biochemical; settings: Table 1B, Formula I compounds; read-out: IC50 PDE4D
T2 construct: PDE4D: The catalytic domain of human PDE4B from S3 16-V692; His6 (N); thrombin cleavage site (N); made in house; host or cells: E. coli
Method: as §1, §2, §3, §4, §5

T1 sequence (Q07343 with tags, fused parts or gaps): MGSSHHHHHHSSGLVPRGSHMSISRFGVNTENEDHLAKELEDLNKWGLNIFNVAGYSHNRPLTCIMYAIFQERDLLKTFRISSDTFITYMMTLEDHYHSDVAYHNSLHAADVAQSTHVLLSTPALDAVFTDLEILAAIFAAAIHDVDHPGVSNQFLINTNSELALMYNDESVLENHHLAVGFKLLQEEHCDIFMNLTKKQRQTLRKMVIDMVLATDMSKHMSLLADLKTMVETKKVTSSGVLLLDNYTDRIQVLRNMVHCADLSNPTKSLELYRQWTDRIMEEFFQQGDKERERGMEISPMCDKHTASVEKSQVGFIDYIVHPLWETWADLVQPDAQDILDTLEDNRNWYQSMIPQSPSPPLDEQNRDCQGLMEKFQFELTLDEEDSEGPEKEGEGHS
T2 sequence (Q08499 380-756): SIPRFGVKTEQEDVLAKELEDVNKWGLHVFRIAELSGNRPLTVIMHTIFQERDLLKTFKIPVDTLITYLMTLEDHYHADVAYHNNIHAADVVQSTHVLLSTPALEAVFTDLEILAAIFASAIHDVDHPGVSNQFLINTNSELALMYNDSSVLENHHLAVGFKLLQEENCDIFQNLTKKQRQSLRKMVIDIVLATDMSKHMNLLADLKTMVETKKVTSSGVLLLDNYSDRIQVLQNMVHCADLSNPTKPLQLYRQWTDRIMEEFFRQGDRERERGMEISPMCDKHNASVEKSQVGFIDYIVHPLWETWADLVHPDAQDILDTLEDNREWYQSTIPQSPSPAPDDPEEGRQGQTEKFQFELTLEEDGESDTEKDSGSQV

SMILES | IC50 [1] | IC50 (PDE4D)
COc1cc(C#N)c(Nc2sc(C(=O)c3ccc(Cl)cc3)c(N)c2C#N)cc1OC [Compound 1-19, 4-Amino-5-(4-chloro-benzoyl)-2-(2-cyano-4,5-dimethoxy-phenylamino)-thiophene-3-carbonitrile] | < 10 µM | < 10 µM
Cc1cc(Cl)ccc1Nc1sc(C(=O)c2cc3cc(Cl)ccc3o2)c(N)c1C#N [Compound 1-23, 4-Amino-5-(5-chloro-benzofuran-2-carbonyl)-2-(4-chloro-2-methyl-phenylamino)-thiophene-3-carbonitrile] | > 10 µM | > 10 µM
CCOC(=O)c1c(Nc2c(C)cccc2C)sc(C(=O)c2ccc(Br)cc2)c1N [Compound 1-24, 4-Amino-5-(4-bromo-benzoyl)-2-(2,6-dimethyl-phenylamino)-thiophene-3-carboxylic acid ethyl ester] | > 10 µM | > 10 µM
N#Cc1c(Nc2ccccc2)sc(C(=O)Nc2nccs2)c1N [Compound 1-25, 3-Amino-4-cyano-5-phenylamino-thiophene-2-carboxylic acid thiazol-2-yl amide] | < 10 µM | < 10 µM
Cc1cc(NC(=O)c2sc(Nc3ccccc3)c(C#N)c2N)no1 [Compound 1-26, 3-Amino-4-cyano-5-phenylamino-thiophene-2-carboxylic acid (5-methyl-isoxazol-3-yl)-amide] | < 10 µM | < 10 µM
Cc1ccc(C(=O)c2sc(NCCN3CCCCC3)c(C#N)c2N)c(C)c1 [Compound 1-38, 4-Amino-5-(2,4-dimethyl-benzoyl)-2-(2-piperidin-1-yl-ethylamino)-thiophene-3-carbonitrile] | > 10 µM | > 10 µM
COc1ccc(OC)c(C(=O)c2sc(NCCN3CCCCC3)c(C#N)c2N)c1 [Compound 1-39, 4-Amino-5-(2,5-dimethoxy-benzoyl)-2-(2-piperidin-1-yl-ethylamino)-thiophene-3-carbonitrile] | > 10 µM | > 10 µM
COc1ccc(C(=O)c2sc(NCCN3CCCCC3)c(C#N)c2N)c(OC)c1 [Compound 1-41, 4-Amino-5-(2,4-dimethoxy-benzoyl)-2-(2-piperidin-1-yl-ethylamino)-thiophene-3-carbonitrile] | > 10 µM | > 10 µM
COC(=O)C(CC(C)C)Nc1sc(C(=O)c2ccc(OC)cc2OC)c(N)c1C#N (centres unmarked) [Compound 1-42, 2-[4-Amino-3-cyano-5-(2,4-dimethoxy-benzoyl)-thiophen-2-ylamino]-4-methyl-pentanoic acid methyl ester] | < 10 µM | > 10 µM
COc1ccc(C(=O)c2sc(NC3CCOC3=O)c(C#N)c2N)c(OC)c1 (centres unmarked) [Compound 1-44, 4-Amino-5-(2,4-dimethoxy-benzoyl)-2-(2-oxo-tetrahydro-furan-3-ylamino)-thiophene-3-carbonitrile] | < 10 µM | > 10 µM
N#Cc1c(NCCN2CCCCC2)sc(C(=O)c2coc3ccccc23)c1N [Compound 1-45, 4-Amino-5-(benzofuran-3-carbonyl)-2-(2-piperidin-1-yl-ethylamino)-thiophene-3-carbonitrile] | > 10 µM | > 10 µM
N#Cc1c(NCCN2CCCCC2)sc(C(=O)c2ccccc2Cl)c1N [Compound 1-46, 4-Amino-5-(2-chloro-benzoyl)-2-(2-piperidin-1-yl-ethylamino)-thiophene-3-carbonitrile] | > 10 µM | > 10 µM
N#Cc1c(NCCN2CCCCC2)sc(C(=O)c2cccc(Cl)c2)c1N [Compound 1-47, 4-Amino-5-(3-chloro-benzoyl)-2-(2-piperidin-1-yl-ethylamino)-thiophene-3-carbonitrile] | > 10 µM | > 10 µM

Second part, the compound after the results:

IC50 [1] | IC50 (PDE4D) | SMILES
> 10 µM | > 10 µM | N#Cc1c(NCCN2CCCCC2)sc(C(=O)c2csc3ccccc23)c1N [Compound 1-48, 4-Amino-5-(benzo[b]thiophene-3-carbonyl)-2-(2-piperidin-1-yl-ethylamino)-thiophene-3-carbonitrile]
< 10 µM | < 10 µM | Cc1c(C(=O)c2sc(Nc3ccccc3F)c(C#N)c2N)cnn1-c1ccccc1 [Compound 1-49, 4-Amino-2-(2-fluoro-phenylamino)-5-(5-methyl-1-phenyl-1H-pyrazole-4-carbonyl)-thiophene-3-carbonitrile]
< 10 µM | > 10 µM | Cc1c(C(=O)c2sc(NCCN3CCCCC3)c(C#N)c2N)cnn1-c1ccccc1 [Compound 1-51, 4-Amino-5-(5-methyl-1-phenyl-1H-pyrazole-4-carbonyl)-2-(2-piperidin-1-yl-ethylamino)-thiophene-3-carbonitrile]
< 10 µM | > 10 µM | COC(=O)C(CC(C)C)Nc1sc(C(=O)c2cnn(-c3ccccc3)c2C)c(N)c1C#N (centres unmarked) [Compound 1-52, 2-[4-Amino-3-cyano-5-(5-methyl-1-phenyl-1H-pyrazole-4-carbonyl)-thiophen-2-ylamino]-4-methyl-pentanoic acid methyl ester]
> 10 µM | > 10 µM | COC(=O)C(CCSC)Nc1sc(C(=O)c2cnn(-c3ccccc3)c2C)c(N)c1C#N (centres unmarked) [Compound 1-53, 2-[4-Amino-3-cyano-5-(5-methyl-1-phenyl-1H-pyrazole-4-carbonyl)-thiophen-2-ylamino]-4-methylsulfanyl-butyric acid methyl ester]
< 10 µM | < 10 µM | COc1ccc(CNc2sc(C(=O)c3cnn(-c4ccccc4)c3C)c(N)c2C#N)cc1OC [Compound 1-54, 4-Amino-2-(3,4-dimethoxy-benzylamino)-5-(5-methyl-1-phenyl-1H-pyrazole-4-carbonyl)-thiophene-3-carbonitrile]
< 10 µM | > 10 µM | Cc1c(C(=O)c2sc(NC3CCOC3=O)c(C#N)c2N)cnn1-c1ccccc1 (centres unmarked) [Compound 1-56, 4-Amino-5-(5-methyl-1-phenyl-1H-pyrazole-4-carbonyl)-2-(2-oxo-tetrahydro-furan-3-ylamino)-thiophene-3-carbonitrile]
< 10 µM | < 10 µM | CCc1ccccc1Nc1sc(C(=O)c2cnn(-c3ccccc3)c2C)c(N)c1C#N [Compound 1-58, 4-Amino-2-(2-ethyl-phenylamino)-5-(5-methyl-1-phenyl-1H-pyrazole-4-carbonyl)-thiophene-3-carbonitrile]
> 10 µM | > 10 µM | Cc1onc(-c2ccccc2)c1C(=O)c1sc(NCCN2CCCCC2)c(C#N)c1N [Compound 1-59, 4-Amino-5-(5-methyl-3-phenyl-isoxazole-4-carbonyl)-2-(2-piperidin-1-yl-ethylamino)-thiophene-3-carbonitrile]
< 10 µM | > 10 µM | COC(=O)C(CC(C)C)Nc1sc(C(=O)c2c(-c3ccccc3)noc2C)c(N)c1C#N (centres unmarked) [Compound 1-60, 2-[4-Amino-3-cyano-5-(5-methyl-3-phenyl-isoxazole-4-carbonyl)-thiophen-2-ylamino]-4-methyl-pentanoic acid methyl ester]
> 10 µM | > 10 µM | N#Cc1c(NCCN2CCCCC2)sc(C(=O)c2ccccn2)c1N [Compound 1-63, 4-Amino-2-(2-piperidin-1-yl-ethylamino)-5-(pyridine-2-carbonyl)-thiophene-3-carbonitrile]
< 10 µM | > 10 µM | COC(=O)C(CC(C)C)Nc1sc(C(=O)c2ccccn2)c(N)c1C#N (centres unmarked) [Compound 1-64, 2-[4-Amino-3-cyano-5-(pyridine-2-carbonyl)-thiophen-2-ylamino]-4-methyl-pentanoic acid methyl ester]
